Reference: patent US11338026B2, “Identification of immunologically protective neo-epitopes for the treatment of cancers” (THE UNIVERSITY OF CONNECTICUT, priority 2014, dated 2022)
Read-outs that look alike come from different tables or passages of the source. Peptide text beside a SMILES is read from it.

Columns and labels:
[1] = system: CD8+ cells; experiment: Intracellular IFN-γ assay by FACS (ICS) on lymphocytes of immunized mice; type: in vivo, BALB/c mice; conditions: for immunogenicity of WT counterpart (functional effector T cells): mice immunized with the WT counterpart of the named neo-epitope
Experimental: Intracellular IFN-γ assay by FACS and ELISPOT. Lymphocytes were incubated either with or without 1-10 μg/ml peptide. GolgiPlug (BD Biosciences, San Jose, Calif.) was added 1 h later. After incubation of 12 to 16 h, cells were stained for CD44 (clone IM7), CD4 (clone GK1.5) and CD8 (clone 53-6.7) (BD Biosciences, San Jose, Calif.), fixed and permeabilized using the Cytofix/Cytoperm™ kit (BD Biosciences, San Jose, Calif.), and stained for intracellular IFN-γ using Phycoerythrin-conjugated anti-mouse IFN-γ (clone XMG1.2, BD Biosciences, San Jose, Calif.). Cells were stained with 1 μl antibody/million cells in 50 μl staining buffer (PBS with 1% bovine serum albumin) and incubated for 20 min at 4° C. in the dark, or according to the manufacturer's instructions. Cells without peptide stimulation were used as a negative control, and the values for these controls was very close to the values seen with the negative control peptide. Typically, 95,000-129,000 lymphocytes (14,500-17,000 CD8+CD4− cells) were acquired. The background is consistently very low (10% of the signal).
(§1) All 18 peptides were used to immunize BALB/c mice. The draining lymph nodes (dLNs) of immunized mice were harvested one week after the single immunization, and the cells were stimulated in vitro for 16 h without any added peptide, the mutant peptide used for immunization, or the corresponding wild type peptide. The CD8+ cells were analyzed for activation (CD44+) and effector function (intracellular IFNγ+). (see Materials and Methods regarding the details of FACS analysis.) All possible patterns of immune-reactivity were observed (FIG. 3A): no immune response (12/18), a mutant peptide-specific, i.e. tumor-specific immune response (5/18), and a cross-reactive response between the mutant and corresponding wild type peptides (1/18).

[2] = system: CD8+ cells; experiment: IFNγ ELISPOT on CD8+ cells of immunized mice; type: in vivo, BALB/c mice; conditions: for ELISpot: mice immunized with mutant peptide; for CD8 T cell response of immunized mice: text, ELISPOT
Experimental: For the ELISPOT assays, the negative controls were CD8+ cells from immunized mice without peptide stimulation. […] The magnitude of responses was rated by mean spot numbers per million CD8+ cells: 5-10 (+); 11-20 (++); 21-50 (+++); 51-100(++++) and >100(+++++).
as §1

[3] = system: CMS5; experiment: Tumor challenge / tumor rejection after peptide immunization, CMS5; type: in vivo, BALB/c mice
Experimental: Tumor challenge and representation of tumor growth. AUC as a tool to measure tumor growth has been described previously. Briefly, AUC was calculated by selecting “Curves & Regression” and then “Area under curve” from the “analyze” tool, using the Prism 5.0 (GraphPad Software, Inc., La Jolla, Calif.). Grubb' test was used to remove up to one outlier from each group.
Depletion of T cell subsets. Immunized mice were depleted of CD8 cells using anti-CD8 rat IgG2b monoclonal antibody 2.43), or depleted of CD4 cells using anti-CD4 rat IgG2b monoclonal antibody GK1.5. Depleting antibodies were given in PBS intraperitoneally two days before tumor challenge and every seven days for the duration of the experiment. First three injections of depleting antibodies were 250 μg per mouse and the later injections were 500 μg per mouse. For treatment with antagonistic antibodies, mice were treated with anti-CD25 antibody (clone PC61, 250 μg, two days before tumor challenge) or anti-CTLA-4 antibody (clone 9D9, 100 μg, seven days before and every three days after tumor challenge). The appropriate T cell sub-sets were depleted by over 95%.
Lack of immuno-protective activity of the strongest K^d-binding neo-epitopes. […]

[4] = target: T1, H-2 K^d (Mus musculus, UniProt P01902); experiment: Binding assays: inhibition of binding of a radiolabeled standard peptide to purified MHC molecules
T1 sequence (P01902 22-368): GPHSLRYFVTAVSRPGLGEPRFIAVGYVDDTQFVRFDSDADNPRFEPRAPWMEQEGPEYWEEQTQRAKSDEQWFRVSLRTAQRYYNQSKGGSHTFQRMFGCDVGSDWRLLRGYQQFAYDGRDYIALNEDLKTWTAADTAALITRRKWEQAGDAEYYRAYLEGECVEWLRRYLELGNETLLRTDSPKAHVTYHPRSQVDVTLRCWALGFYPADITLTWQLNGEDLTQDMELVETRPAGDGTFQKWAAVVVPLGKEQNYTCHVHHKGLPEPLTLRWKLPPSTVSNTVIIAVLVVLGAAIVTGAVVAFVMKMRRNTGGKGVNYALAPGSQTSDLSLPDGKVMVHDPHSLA
T1 sequence (P01887 21-119 partner): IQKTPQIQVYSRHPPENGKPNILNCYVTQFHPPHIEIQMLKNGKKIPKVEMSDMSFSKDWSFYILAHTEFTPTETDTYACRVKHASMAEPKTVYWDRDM
Experimental: Binding assays. Binding of peptides to H-2 K^d was determined using quantitative assays based on the inhibition of binding of a radiolabeled standard peptide to purified MHC molecules essentially as described previously. […] Under the conditions utilized, where [label]<[MHC] and IC50≥[MHC], the measured IC50 values are reasonable approximations of the dissociation constant values.

Molecule	CD8 T cell response by intracellular cytokine assay [1]	ELISpot [2]	CD8 T cell response of immunized mice [2]	protection from tumor growth / tumor rejection [3]	immunogenicity of WT counterpart (functional effector T cells) [1]	further results
SIINFEKL (listed as Gallus gallus) [reference compound]						CD8 response after second immunization (Prime vs Boost) ([1]; 100 μg peptide once or twice with a 29-day interval): amplified by a second immunization
CSCC[C@H](NC(=O)[C@@H]1CCCN1C(=O)[C@@H](NC(=O)[C@H](Cc1ccc(O)cc1)NC(=O)[C@@H](N)CC(=O)O)C(C)C)C(=O)N[C@@H](CCC(=O)O)C(=O)N[C@@H](CCC(N)=O)C(=O)N1CCC[C@H]1C(=O)N[C@@H](CCCNC(=N)N)C(=O)O [Alkbh6.2, D(y/D)VPMEQPR] (H-DYVPMEQPR-OH; N-terminus and C-terminus assumed)	un-detectable by the intracellular cytokine assay	++ (10-20 spots/10^6 CD8 = ++)	modest CD8 T cell response	representative neo-epitopes that do		
CC(C)C[C@H](NC(=O)[C@@H]1CCCN1C(=O)[C@@H](NC(=O)[C@H](CCCNC(=N)N)NC(=O)[C@H](CCCCN)NC(=O)[C@H](CC(C)C)NC(=O)[C@H](CC(C)C)NC(=O)[C@@H]1CCCN1C(=O)[C@@H](NC(=O)[C@H](Cc1ccc(O)cc1)NC(=O)[C@@H](N)Cc1ccc(O)cc1)C(C)C)C(C)C)C(=O)O [Alms1.2] (H-YYVPLLKRVPL-OH)		++ (10-20 spots/10^6 CD8 = ++)			elicited functional effector T cells in vivo	IC50 [4]: 1480 nM; IC50 ([4]; mutant peptide, read-out: Measured IC50 for K^d (Mut/WT): Mut): 421 nM
CC(C)[C@H](NC(=O)[C@H](CO)NC(=O)[C@@H](NC(=O)[C@H](CCCCN)NC(=O)[C@H](C)NC(=O)[C@H](CCCCN)NC(=O)[C@H](CO)NC(=O)[C@@H](NC(=O)[C@H](Cc1ccccc1)NC(=O)[C@H](Cc1ccc(O)cc1)NC(=O)CN)C(C)C)[C@@H](C)O)C(=O)O (racemic) [Abr]					elicited functional effector T cells in vivo	
CSCC[C@H](NC(=O)[C@H](CC(C)C)NC(=O)CNC(=O)[C@@H]1CCCN1C(=O)[C@H](Cc1ccccc1)NC(=O)[C@@H](NC(=O)[C@@H](N)CCC(N)=O)C(C)C)C(=O)N[C@@H](CCC(=O)O)C(=O)N[C@@H](CC(C)C)C(=O)O [Atxn10.1] (H-QVFPGLMEL-OH; N-terminus and C-terminus assumed)	un-detectable by the intracellular cytokine assay	+++ (21-50 spots/10^6 CD8 = +++)	modest CD8 T cell response	representative neo-epitopes that do		IC50 ([4]; WT counterpart peptide, read-out: Measured IC50 for K^d (Mut/WT): WT): 7050 nM
CC[C@H](C)[C@H](NC(=O)[C@H](Cc1ccc(O)cc1)NC(=O)[C@@H](N)[C@@H](C)O)C(=O)N[C@@H](CCCNC(=N)N)C(=O)N1CCC[C@H]1C(=O)N[C@@H](Cc1ccccc1)C(=O)N[C@@H](CCC(=O)O)C(=O)N[C@H](C(=O)N[C@@H](CCCCN)C(=O)N[C@H](C(=O)O)C(C)C)[C@@H](C)O [Ccdc85c, TYIRP(f/L)ETKV] (H-TYIRPFETKV-OH)					elicited functional effector T cells in vivo	
